Measurements: patent publication US12590094B2, “Compounds for the treatment of neurodegenerative and metabolic disorders” (UNIVERSITY OF FLORIDA RESEARCH FOUNDATION, INCORPORATED, priority 2019, dated 2026)
Where two headings read alike, the source gives them in different places.

Key:
Cells exposed to TPrP [1] = conditions: for EC50: read-out: Viability EC50
[2] = system: PK1 neuroblastoma cells treated with TPrP; assay: cells; format: cell-based; conditions: Neuroblastoma cell, read-out: NAD EC50
[3] = system: PK1 neuroblastoma cells treated with TPrP; assay: cells; format: cell-based; conditions: for EC50: Neuroblastoma cell, read-out: Viability EC50
Cells exposed to TPrP [4] = assay: cells; conditions: read-out: Viability EC50

SMILES: CCc1c(C(=O)NCCN)ncc2[nH]c3cc(OC)c(OC)cc3c12 [DMCM-8124]
- EC50 (Cells exposed to TPrP [1]): ~1.8 µM

SMILES: CCc1c(C(=O)NCCN)ncc2[nH]c3cc(OC)c(OC)cc3c12 [DMCM-8130]
- EC50 (Cells exposed to TPrP [1]): ~0.6 µM

SMILES: COc1cc(OC)c2cc(-c3ccncc3)cnc2c1 [DMPQ]
- EC50 [2]: 5.5 µM
- EC50 [3]: 0.505 µM

SMILES: COc1ccc(-c2cc(C(F)(F)F)n3ncc(C(=O)NCCCn4ccnc4)c3n2)cc1 [SR0-24081]
- EC50 (Cells exposed to TPrP [1]): 0.0005 µM

SMILES: O=C(NCCCn1ccnc1)c1cnn2c(C(F)(F)F)cc(-c3ccc(Br)cc3)nc12 [SR0-24082]
- Viability EC50: % effective (Cells exposed to TPrP [1]): ~40% effective at nM, fully effective at 10 nM

SMILES: O=C(NCCCn1ccnc1)c1cnn2c(C(F)(F)F)cc(-c3ccc(F)cc3)nc12 [SR0-24083]
- Viability EC50: % effective (Cells exposed to TPrP [1]; at 1 nM): ~40% effective at 1 nM, fully effective at 10 nM

SMILES: O=C(NCCCn1ccnc1)c1cnn2c(C(F)F)cc(-c3ccccc3)nc12 [SR0-24084]
- Viability EC50: % effective (Cells exposed to TPrP [1]; at 1 nM): ~40% effective at 1 nM, fully effective at 10 nM

SMILES: COc1ccc(-c2cc(C(F)(F)F)n3ncc(C(=O)NCCCn4ccnc4)c3n2)cc1 [SR0-28468]
- EC50 (Cells exposed to TPrP [1]): > 0.05 µM

SMILES: COc1ccc(-c2cc(C(F)(F)F)n3ncc(C(=O)NCCCn4ccnc4C)c3n2)cc1 [SR0-31107]
- EC50 (Cells exposed to TPrP [1]): 0.002 µM

SMILES: COc1ccc(-c2cc(C(F)(F)F)n3ncc(C(=O)NCCCn4ccnc4C)c3n2)cc1 [SR0-31108]
- EC50 (Cells exposed to TPrP [1]): > 0.05 µM

SMILES: NS(=O)(=O)c1ccc(Nc2nc(-c3cc4ccccc4oc3=O)cs2)cc1 [SR1-22833]
- EC50 [2]: 0.245 µM
- EC50 [3]: 0.057 µM

SMILES: CC1=C[C@@H]2c3cccc4[nH]cc(c34)C[C@H]2N(C)C1 [SR1-75354, agroclavine]
- EC50 [2]: 2 µM
- EC50 [3]: 1.6 µM

SMILES: CNC(=O)c1cc2c(cn1)[nH]c1ccccc12 [SR1-75632, N-methyl-9H-pyrido[3,4-b]indole-3-carboxamide]
- EC50 [2]: > 15 µM
- EC50 [3]: 3.2 µM

SMILES: Cc1ccc(-c2nnc3c4ccccc4c(C)nn23)cc1S(=O)(=O)NCCO [SR1-87813]
- EC50 [2]: 0.733 µM
- EC50 [3]: 0.156 µM

SMILES: COc1ccc(-c2nnc3c4ccccc4c(C)nn23)cc1S(=O)(=O)NC(C)(C)CO [SR1-87819]
- EC50 [2]: 0.682 µM
- EC50 [3]: 0.098 µM

SMILES: CNS(=O)(=O)c1cc(-c2nnc3c4ccccc4c(C)nn23)ccc1C [SR1-115255]
- EC50 [2]: 1.2 µM
- EC50 [3]: 0.196 µM

SMILES: Cc1ccc(-c2nnc3c4ccccc4c(C)nn23)cc1S(=O)(=O)N1CCN(C)CC1 [SR1-115275]
- EC50 [2]: 2.6 µM
- EC50 [3]: 0.839 µM

SMILES: c1ccc2c(c1)OCC(CNc1nnc(Cc3ccncc3)c3ccccc13)O2 (stereo not drawn) [SR1-134003]
- EC50 [2]: 1.2 µM
- EC50 [3]: 0.2 µM

SMILES: COc1ccc(-c2csc(Nc3ccc(S(N)(=O)=O)cc3)n2)cc1 [SR1-223735]
- EC50 [2]: 0.36 µM
- EC50 [3]: 0.087 µM

SMILES: NS(=O)(=O)c1ccc(Nc2nc(-c3ccc4ccccc4c3)cs2)cc1 [SR1-281377]
- EC50 [2]: 1.2 µM
- EC50 [3]: 0.192 µM

SMILES: CC(=O)Nc1cccc(-c2csc(Nc3ccc(S(N)(=O)=O)cc3)n2)c1 [SR1-364643]
- EC50 [2]: 0.263 µM
- EC50 [3]: 0.053 µM

SMILES: NS(=O)(=O)c1ccc(Nc2nc(-c3ccccn3)cs2)cc1 [SR1-477176]
- EC50 [2]: 0.891 µM
- EC50 [3]: 0.227 µM

SMILES: Cc1nc2sccn2c1-c1csc(Nc2ccc(S(N)(=O)=O)cc2)n1 [SR1-477230]
- EC50 [2]: 0.204 µM
- EC50 [3]: 0.047 µM

SMILES: Cc1nc2ncccn2c1-c1csc(Nc2ccc(S(N)(=O)=O)cc2)n1 [SR1-477264]
- EC50 [2]: 0.597 µM
- EC50 [3]: 0.155 µM

SMILES: NS(=O)(=O)c1ccc(Nc2nc(-c3ccccc3)cs2)cc1 [SR1-492469]
- EC50 [2]: 0.859 µM
- EC50 [3]: 0.311 µM

SMILES: Cc1ccc(-c2cc(C(F)(F)F)n3ncc(C(=O)NCCCn4ccnc4)c3n2)cc1 [SR1-527764]
- EC50 [2]: 0.0071 µM
- EC50 [3]: 0.0019 µM

SMILES: O=C(NCCCn1ccnc1)c1cnn2c(C(F)(F)F)cc(-c3ccc(-c4ccco4)cc3)nc12 [SR1-550907]
- EC50 [2]: 0.0097 µM
- EC50 [3]: 0.0029 µM

SMILES: Cc1ccc(-c2nnc3c4ccccc4c(C)nn23)cc1S(=O)(=O)N1CCN(CCO)CC1 [SR1-626887]
- EC50 [2]: 0.0091 µM
- EC50 [3]: < 0.003 µM

SMILES: COc1ccc2cc3[n+](cc2c1OC)CCc1cc2c(cc1-3)OCO2 [SR1-711827, berberine chloride]
- EC50 [2]: 13.2 µM
- EC50 [3]: 3.1 µM

SMILES: O=c1cc(-c2ccc(O)cc2)oc2cc(O[C@@H]3O[C@H](CO)[C@@H](O)[C@H](O)[C@H]3OC3OC[C@](O)(CO)[C@H]3O)cc(O)c12 (stereo partly drawn) [SR1-712126]
- EC50 [2]: 10.7 µM
- EC50 [3]: 4.6 µM

SMILES: COc1ccc2c3c([nH]c2c1)C(C)=NCC3 [SR1-721899, harmaline]
- EC50 [2]: 14 µM
- EC50 [3]: 3.8 µM

SMILES: NS(=O)(=O)c1ccc(Nc2nc(-c3ccc(F)cc3)cs2)cc1 [SR1-742242]
- EC50 [2]: 0.946 µM
- EC50 [3]: 0.197 µM

SMILES: CN1C[C@H](CO)C=C2c3cccc4[nH]cc(c34)C[C@H]21 [SR1-758923, lysergol]
- EC50 [2]: > 15 µM
- EC50 [3]: 1.9 µM

SMILES: COc1cc2c(cc1O)C[C@H]1c3c(cc(O)c(OC)c3-2)CCN1C [SR1-758928, boldine]
- EC50 [2]: 7.6 µM
- EC50 [3]: 2 µM

SMILES: COc1cc(OC)c2c(=O)cc(-c3ccccc3)oc2c1 [SR1-758978, 5,7-dimethoxy-2-phenyl-4H-chromen-4-one]
- EC50 [2]: > 10 µM
- EC50 [3]: 1.7 µM

SMILES: NS(=O)(=O)c1ccc(Nc2nc(-c3cccnc3)cs2)cc1 [SR1-809850]
- EC50 [2]: 0.337 µM
- EC50 [3]: 0.088 µM

SMILES: COc1cc2c(cc1OC)-c1cc3ccc(OC)c(OC)c3c[n+]1CC2 [SR1-841226, palmatine chloride]
- EC50 [2]: 2 µM
- EC50 [3]: 1.1 µM

SMILES: COc1ccc2c(c1O)-c1c(OC)c(O)cc3c1[C@H](C2)N(C)CC3 [SR1-841246, N-Methyl lindcarpine]
- EC50 [2]: > 15 µM
- EC50 [3]: 4.4 µM

SMILES: COc1ccc(-c2cc(C(F)(F)F)n3ncc(C(=O)NCCCn4ccnc4C)c3n2)cc1 [SR3-5210]
- EC50 (Cells exposed to TPrP [1]): 0.0027 µM

SMILES: COc1ccc(-c2cc(C(F)(F)F)n3ncc(C(=O)NCCCn4ccnc4)c3n2)cc1 [SR3-5230]
- EC50 (Cells exposed to TPrP [1]): > 0.032 µM

SMILES: COc1ccc2c(c1)[nH]c1c(C)nccc12 [SR5-1527, methoxy harman]
- EC50 [2]: 14 µM
- EC50 [3]: 1.8 µM

SMILES: O=c1cc(-c2ccc(O)cc2)oc2cc(O[C@@H]3O[C@H](CO)[C@H](O)[C@H](O)[C@H]3O)cc(O)c12 [SR5-2196, apigenin 7-(β-D-galactopyranosyl) ether]
- EC50 [2]: > 10 µM
- EC50 [3]: 4.6 µM

SMILES: COc1cc2c(cc1OC)[C@H]1[C@@H](C)c3ccc(OC)c(OC)c3CN1CC2 [SR5-2225, corydaline]
- EC50 [2]: 2 µM
- EC50 [3]: 1.3 µM

SMILES: COc1ccc(C2CC(=O)c3cc(OC)ccc3O2)cc1 (stereo not drawn) [SR5-2542, 6-methoxy-2-(4-methoxyphenyl) chroman-4-one]
- EC50 [2]: > 10 µM
- EC50 [3]: 2.1 µM

SMILES: COc1ccc(-c2cc(=O)c3c(O)cc(OC)cc3o2)cc1 [SR5-2549, 5-hydroxy-7-methoxy-2-(4-methoxyphenyl)-4H-chromen-4-one]
- EC50 [2]: 7.3 µM
- EC50 [3]: 2 µM

SMILES: COc1ccc(-c2cc(=O)c3c(O)cc(OC)c(OC)c3o2)c(OC)c1 [SR5-2616, 2-(2,4-dimethoxyphenyl)-5-hydroxy-7,8-dimethoxy-4H-chromen-4-one]
- EC50 [2]: 2.1 µM
- EC50 [3]: 1.6 µM

SMILES: COc1cc2cc3c4cc(OC)c(OC)cc4cc[n+]3c(C)c2cc1OC [SR5-2641, coralyne chloride]
- EC50 [2]: 0.671 µM
- EC50 [3]: 0.507 µM

SMILES: COc1ccc(-c2oc3cc(OC)c(OC)c(OC)c3c(=O)c2OC)cc1OC [SR5-2644, 2-(3,4-dimethoxyphenyl)-3,5,6,7-tetramethoxy-4H-chromen-4-one]
- EC50 [2]: 1.2 µM
- EC50 [3]: 0.62 µM

SMILES: COc1ccc(-c2cc(=O)c3c(O)c(OC)c(O[C@H]4O[C@H](CO[C@@H]5O[C@@H](C)[C@H](O)[C@@H](O)[C@H]5O)[C@@H](O)[C@H](O)[C@H]4O)cc3o2)cc1 [SR5-2766, pectolinargenin 7-[6-O-(6-deoxy-α-L-mannopyranosyl)-β-D-glucopyranosyl] ether]
- EC50 [2]: 4 µM
- EC50 [3]: 2.1 µM

SMILES: COc1ccc(-c2nnc3c4ccccc4c(C)nn23)cc1S(=O)(=O)N1CCOCC1 [SR5-22837]
- EC50 [2]: 0.089 µM
- EC50 [3]: 0.029 µM

SMILES: COc1ccc(-c2nnc3c4ccccc4c(C)nn23)cc1S(=O)(=O)NCc1cccnc1 [SR5-22838]
- EC50 [2]: 0.38 µM
- EC50 [3]: 0.09 µM

SMILES: Cc1ccc(-c2nnc3c4ccccc4c(C)nn23)cc1S(=O)(=O)NCc1cccnc1 [SR5-22839]
- EC50 [2]: 0.092 µM
- EC50 [3]: 0.028 µM

SMILES: COCCNS(=O)(=O)c1cc(-c2nnc3c4ccccc4c(C)nn23)ccc1C [SR5-22841]
- EC50 [2]: 0.688 µM
- EC50 [3]: 0.13 µM

SMILES: CC1(c2cccc(Nc3nnc(Cc4ccncc4)c4ccccc34)c2)OCCO1 [SR-30012]
- EC50 (Cells exposed to TPrP [4]): 0.002 µM

SMILES: C/C(=N\O)c1cccc(Nc2nnc(Cc3ccncc3)c3ccccc23)c1 [SR-30013]
- EC50 (Cells exposed to TPrP [4]): 0.002 µM

SMILES: CO/N=C(\C)c1cccc(Nc2nnc(Cc3ccncc3)c3ccccc23)c1 [SR-30014]
- EC50 (Cells exposed to TPrP [4]): 0.002 µM

SMILES: c1ccc2c(c1)CC(CNc1nnc(Cc3ccncc3)c3ccccc13)O2 (stereo not drawn) [SR-30024]
- EC50 (Cells exposed to TPrP [4]): 0.008 µM

SMILES: COc1ccc(-c2cc(=O)c3c(OC)c(OC)c(OC)cc3o2)cc1OC [SR-05000002257, 2-(3,4-dimethoxyphenyl)-5,6,7-trimethoxy-4H-chromen-4-one]
- EC50 [2]: 3.6 µM
- EC50 [3]: 0.323 µM

SMILES: COc1ccc(-c2cc(=O)c3c(OC)c(OC)c(OC)c(OC)c3o2)cc1 [SR-05000002625, 5,6,7,8-tetramethoxy-2-(4-methoxyphenyl)-4H-chromen-4-one]
- EC50 [2]: 6 µM
- EC50 [3]: 1.9 µM

SMILES: COc1ccc(-c2cc(=O)c3c(O)c(OC)c(OC)c(OC)c3o2)cc1OC [SR-05000002635, 2-(3,4-dimethoxyphenyl)-5-hydroxy-6,7,8-trimethoxy-4H-chromen-4-one]
- EC50 [2]: 0.609 µM
- EC50 [3]: 0.081 µM

SMILES: COc1cc2nccc(Oc3ccc(NC(=O)NC4CC4)c(Cl)c3)c2cc1C(N)=O [lenvatinib, reference compound]
- neuroprotective activity in the TPrP assay [3]: entirely lacked neuroprotective activity

SMILES: CNC(=O)c1cc(Oc2ccc(NC(=O)Nc3ccc(Cl)c(C(F)(F)F)c3)cc2)ccn1 [sorafenib, reference compound]
- neuroprotective activity in the TPrP assay [3]: entirely lacked neuroprotective activity

SMILES: COc1cc2nccc(Oc3ccc(NC(=O)Nc4cc(C)on4)c(Cl)c3)c2cc1OC [tivozanib, reference compound]
- neuroprotective activity in the TPrP assay [3]: entirely lacked neuroprotective activity
